Earlier results as cited in patent US20090048334A1, “Sodium ascorbate solubilisate” (priority 2004, published 2009).

Settings: for content of the agent in an aqueous solution: over an extended period of time

## O=C1O[C@H]([C@@H](O)CO)C(O)=C1O [ascorbic acid]
Aqueous ascorbic acid solution, after 30 days
  added ascorbic acid present: approximately 70%

## CCCCCCCCCCCCCCCC(=O)OC[C@H](O)[C@H]1OC(=O)C(O)=C1O [ascorbylpalmitate]
  content of the agent in an aqueous solution: remains constant

## O=C1O[C@H]([C@@H](O)CO)C([O-])=C1OP(=O)([O-])[O-].[Na+].[Na+].[Na+] [sodium ascorbic phosphate]
  content of the agent in an aqueous solution: remains constant
